Reference: patent US9066947B2, “Indolyl-substituted pyrazino[1,2-b]isoquinolines for cancer treatment” (Everest Biosciences, Inc., priority 2009, dated 2015)

Assays:
[1] = system: PC-3 prostate cancer cells; assay: Cell proliferation assay (trypan blue viable cell count) and IC50 determination; assay type: cell-based, human; conditions: PC-3 cells; for IC50: Homo sapiens, viable cells after 48 hours, read-out: IC50 for cell growth inhibition; for concentration from which statistically significant cell growth inhibition started: 48 hours
Description: All new synthesized compounds and Etoposide were first dissolved in 100% DMSO at initial concentration of 100 mM, and then diluted at final concentration of 200 uM in culture medium. Commercial form of Avastin (25 mg/ml) was diluted to appropriate concentrations in culture medium.
(§1) Hormone-independent and metastatic PC-3 prostate cancer cells were purchased from the American Type Culture Collection (Manassas, Va., USA) and cultured in RPMI-1640 supplemented with 10% fetal bovine serum. Etoposide was purchased from Sigma, Avastin from Roche.
For cell counting a total of 6×10^4 cells at a density of 0.3×10^6/ml were seeded in 96-well plate. The cells were treated with compounds, Etoposide or Avastin as positive controls at 1 uM, 5 uM, 10 uM, 20 uM, 50 uM, 100 uM for 48 hours. For Avastin 5 uM, 20 uM and 50 uM concentrations were used. The cells were labeled with trypan blue and the viable cells were quantified.

[2] = system: PC-3 prostate cancer cells; assay: Annexin V-apoptosis assay; assay type: cell-based, human; conditions: 48 hours; for apoptotic cell number versus control and Etoposide: 50 uM and 100 uM
Description: as §1
Cells were treated with 50 uM and 100 uM compounds and Etoposide for 48 hours, harvested, washed with PBS and resuspended in binding buffer (0.01 M HEPES pH 7.4, 0.14 M NaCl, […] CaCl2) (BD Bioscience, san Jose, Calif., USA), stained with […] annexin V and 7-AAD (BD Bioscience). The cells were incubated for 15 min at room temperature in the dark, and the rate of apoptosis was measured by flow cytometry (Calibur, BD) and analyzed using FCS Express Professional software (De NoVo software, CA, USA).

[3] = system: PC-3 prostate cancer cells; assay: Cell cycle analysis; assay type: cell-based, human; conditions: for G2/M phase blockage: 50 uM and 100 uM, analogue 3 statement at 100 uM
Description: as §1
Cells were harvested after the treatment, then fixed in ice-cold 70% EtOH. Cells then were washed with PBS and incubated in DNA staining buffer, containing 1 mg/ml sodium citrate (Sigma), 0.1 mg/ml propidium iodide (Sigma), 3 ul/ml TritonX-100, 0.02 mg/ml RNaseA (Sigma) for 30 min at 4° C. The cell cycle profiles were measured in a FACS Calibur cytofluorometer (BD) and analyzed using FCS Express Professional (De NoVo software, CA, USA) and Multicycle (Phoenix Flow Systems, Inc., CA, USA) softwares.

[4] = system: PC-3 tumors; assay: PC-3 prostate cancer xenograft mouse model of tumor growth and metastasis; assay type: in vivo, athymic NMRI nude mice; conditions: tumors about 250 mm3, IV once every other day for 14 days; Etoposide 20 mg/kg, Substance X 40 mg/kg (FIG. 4)
Text: Athymic NMRI nude mice between 6-8 weeks old (Taconic; Bomholt, Denmark) were used. Prostate cancer xenograft mouse model was created by implanting hormone-independent PC3 tumor cells subcutaneously into athymic nude mice as previously described (Wegiel B, Bjartell A, Tuomela J, et al.: Multiple cellular mechanisms related to cyclin Al in prostate cancer invasion and metastasis. Journal of the National Cancer Institute 100: 10221036, 2008).
PC-3 cells were purchased from American Type Culture Collection (Manassas, V A) and cultured in RPMI-1640 supplemented with 10% Fetal Bovine Serum. PC-3 cells at 1×10^6/per mouse were used. The mice were divided into three groups (6 mice per group). The first group allowed tumors to grow between 170-400 mm^3 in size before starting the treatment. The second group allowed tumors to grow between 550-650 mm^3 in size before starting the treatment. The third group allowed tumors to grow between 700-800 mm^3 in size before starting the treatment. The tumor diameters were measured twice weekly using calipers. The tumor volumes were calculated using an equation of a*(b2/2) where a and b represent the length and width of the tumor, respectively.
The treatment of the compound of Example 1 (also referred to herein as “Substance X”) or PBS containing 5% DMSO (vehicle) as Control was started when tumors reached the desired size as described above. In the first experimental setting, Substance X was administered intravenously once every other day. In the second experimental setting, Substance X was administrated orally once every other day. Tumor growth was assessed periodically as described in Results. The mice were sacrificed after treatment by euthanization via isofluorene inhalation. Lymph node, liver, lung, spleen and femurs were removed from each mouse. Half of the tumor tissues were used for histology and immunohistochemical analysis. For histology analysis, tissues were fixed in 4% paraformaldehyde and embedded in paraffin. The sections were stained with hematoxylineosin (H&E) or imunohistochemical stained with antibodies and analyzed under an optical microscope. The other half of the tissues were used for protein analysis and thus were snapfrozen in liquid nitrogen. The body weights of the mice on the first and last day of the treatment were collected and compared. Tumor invasion and metastasis were examined in various tissues from the sacrificed mice.
For a comparison study, mice with tumors at 190-250 mm^3 in size were treated with the cytotoxic drug Etoposide (Sigma) at a dose of 20 mg/kg via IV injection once every other day. The tumor size was measured as described in the Results. Three mice were treated with Etoposide or the vehicle as Control. The mice were sacrificed and the tissues were collected as described above.

IC50 [1] | Structure (SMILES) | apoptotic cell number versus control and Etoposide [2] | Early apoptosis, % ([2]; 50 uM) | Late apoptosis/necrosis, % ([2]; 50 uM) | Total, % (apoptosis) ([2]; 50 uM) | Early apoptosis, % ([2]; 100 uM) | Late apoptosis/necrosis, % ([2]; 100 uM) | Total, % (apoptosis) ([2]; 100 uM) | G0/G1, % ([3]; 50 uM) | S + G2 + M, % ([3]; 50 uM) | G2/M phase blockage [3] | G0/G1, % ([3]; 100 uM) | S + G2 + M, % ([3]; 100 uM) | concentration from which statistically significant cell growth inhibition started [1] | effect on PC-3 cell number ([1]; 48 hours (FIG. 12)) | tumor growth, comparison of Etoposide and Substance X [4]
36 µM | CN1CC(=O)N2[C@H](c3c[nH]c4ccc(Cl)cc34)c3cc4c(cc3C[C@H]2C1=O)OCO4 [Analogue 1, (2S,8S)-2-(5-chloro-1H-indol-3-yl)-6-methyl-13,15-dioxa-3,6-diazatetracyclo-[8.7.0.0^3,8.0^12,16]heptadeca-1(10),11,16-triene-4,7-dione] | increasing in both early and late apoptotic cell number | 10.98% | 4.23% | 15.21% | 16.83% | 8.29% | 25.12% | 63.26% | 36.74% | not | 60.44% | 39.56% |  |  | 
60 µM | COc1ccc2[nH]cc([C@@H]3c4cc5c(cc4C[C@H]4C(=O)N(C)CC(=O)N34)OCO5)c2c1 [Analogue 2, (2S,8S)-2-(5-methoxy-1H-indol-3-yl)-6-methyl-13,15-dioxa-3,6-diazatetracyclo[8.7.0.0^3,8.0^12,16]heptadeca-1(10),11,16-triene-4,7-dione] |  |  |  |  |  |  |  |  |  |  |  |  | 5 µM |  | 
32 µM | CN1CC(=O)N2[C@H](c3c[nH]c4c3ccc3ccccc34)c3cc4c(cc3C[C@H]2C1=O)OCO4 [Analogue 3, (2S,8S)-6-methyl-2-{1H-naphtho[1,2-b]pyrrol-3-yl}-13,15-dioxa-3,6-diazatetracyclo[8.7.0.0^3,8.0^12,16]heptadeca-1(10),11,16-triene-4,7-dione] | increasing in both early and late apoptotic cell number | 15.21% | 6.55% | 21.76% | 17.51% | 5.52% | 23.03% | 67.52% | 32.48% |  | 51.77% | 48.23% | 5 µM |  | 
30 µM | CN1CC(=O)N2[C@H](c3cn(C)c4ccccc34)c3cc4c(cc3C[C@H]2C1=O)OCO4 [Analogue 4, (2S,8S)-6-methyl-2-(1-methyl-1H-indol-3-yl)-13,15-dioxa-3,6-diazatetracyclo-[8.7.0.0^3,8.0^12,16]heptadeca-1(10),11,16-triene-4,7-dione] |  |  |  |  |  |  |  |  |  |  |  |  | 10 µM |  | 
 | CN1CC(=O)N2[C@H](c3cn(Cc4ccccc4)c4ccccc34)c3cc4c(cc3C[C@H]2C1=O)OCO4 [Analogue 5, (2S,8S)-2-(1-benzyl-1H-indol-3-yl)-6-methyl-13,15-dioxa-3,6-diazatetracyclo-[8.7.0.0^3,8.0^12,16]heptadeca-1(10),11,16-triene-4,7-dione] |  |  |  |  |  |  |  |  |  |  |  |  |  | resulted in cell reduction | 
 | COc1cc([C@@H]2c3cc4c(cc3[C@@H](O[C@@H]3O[C@@H]5CO[C@@H](C)O[C@H]5[C@H](O)[C@H]3O)[C@H]3COC(=O)[C@H]23)OCO4)cc(OC)c1O [Etoposide, reference compound] |  | 9.22% | 6.73% | 15.95% | 9.35% | 4.98% | 14.33% | 15.91% | 84.09% | G2/M phase blockage | 21.39% | 78.61% |  |  | grew slowly
